Test results published in patent publication US9463254B2, “Molecular design toward dual-modality probes for radioisotope-based imaging (PET or SPECT) and MRI” (Board of Regents, The University of Texas System, priority 2013, dated 2016).

Columns and labels:
[1] = et al., cited from earlier work; for thermodynamic stability logK: Caravan, 1999
[2] = MRI imaging and relaxivity measurements at 7.0 T; assay type: physicochemical
Method: The T1-weighted MR images of samples in 0.5 mL microfuge tubes were collected using Agilent®/Varian™ 7.0 T ([…], 5 cm diameter volume coil) VNMRj's spin-echo sequence (SEMS) sequence. For imaging, the following parameters were used: TR=200 ms; effective echo time (TE)=11.5 ms; FOV 45×45 mm^2, data matrix=256×256, averaging=2, slice=1 mm, steady-state scans=5, single slice. The T1-maps of the samples at […] was determined from a series of multi-TR (0.005 s to 10 s) saturation-recovery spin-echo sequence (SEMS with minimum TE (11.5 ms); FOV 45×45 mm^2; matrix=128×128; averaging=5, steady state scans=5), fitted and calculated using the ImageJ software. All the fits for T1 values used to calculate the longitudinal relaxivity, r1, had fitting coefficients, R^2≧0.99. Three trials were performed. […] Such changes are well known that T1 relaxivity typically decreases with increasing field strength (Caravan, et al., 1999).

[3] = 20 MHz, 39° C.; cited from earlier work
[4] = Relaxivity measurements (T1 relaxivity, Maran Ultra relaxometer); assay type: physicochemical; settings: 20 MHz, 25° C., Millipore water
Method: The T1 values were recorded at […], 25° C. by using a Maran Ultra relaxometer (Oxford Instruments, UK). Longitudinal relaxation times were measured by using the inversion-recovery pulse sequence (180°-t-90°). The T1 relaxivities were determined by the linear regression analysis of the water proton relaxation rates in solutions ranging in concentration from 0.005 to 12 mM, in Millipore water in triplicate. At 20 MHz, 25° C., the relaxivity of Gd^3+-L was calculated to be 103.5±15 mM^−1 s^−1. Thus, each Gd in the complex accounts for relaxivity of 17.25 mM^−1 s^−1, while under the same conditions, the relaxivity of Gd(DOTA) complex is 3.5 mM^−1 s^−1. The relaxivity value of Gd^3+-L is approximately 400% higher than that of Gd(DOTA). This may be attributed to its higher molecular weight (larger size) and consequently longer rotational correlation time (tR). At ambient conditions (37° C.), the relaxivity value of Gd^3+-L remains unchanged. The measurement of the relaxivity value of Gd^3+-L in rat serum at 25° C. gives an enhanced relaxivity value of 145.5±9.2 mM^−1 s^−1.

## O=C([O-])CN1CCN(CC(=O)[O-])CCN(CC(=O)[O-])CC1.[Ga+3] [Ga-NOTA]
[1]
  thermodynamic stability logK: 31.0

## O=C([O-])CN(CCN(CC(=O)[O-])CC(=O)O)CCN(CC(=O)[O-])CC(=O)O.[Gd+3] [Gd-DTPA]
[1]; Reichert, 1996
  Log K compared with that of Gd-NOTA complex: about eight orders of magnitude higher

## O=C([O-])CN1CCN(CC(=O)[O-])CCN(CC(=O)[O-])CC1.[Gd+3] [Gd-NOTA]
[1]
  thermodynamic stability logK: 14.3

## CNC[C@H](O)[C@@H](O)[C@H](O)[C@H](O)CO.CNC[C@H](O)[C@@H](O)[C@H](O)[C@H](O)CO.O=C([O-])CN(CCN(CC(=O)[O-])CC(=O)O)CCN(CC(=O)[O-])CC(=O)O.[Gd+3] [magnevist]
[2]
  r1 (longitudinal relaxivity) of the comparator: 4.1 mM^−1 S^1

## Gadomer-17
[3]
  ionic relaxivity: 17.3 mM⁻¹ s⁻¹

## gadolinium-1,4,7,10-tetrakis(carboxymethyl) cyclododecane [Gd(DOTA)]
[4]
  relaxivity: 3.5 mM⁻¹ s⁻¹
[1]
  thermodynamic stability logK: 24.7
